One molecule from BindingDB's records for patent US11912682 (Monte Rosa Therapeutics, 2024) can be followed below.

Some results are limits rather than exact numbers.

The test addresses Protein cereblon (Homo sapiens, UniProt Q96SW2). In words: Compound Activity by Fluorescent Polarization Assay. The procedure:
Compound activity was monitored in a fluorescence polarization (FP) homogeneous assay using 1-[5-({2-[2-(2-{[2-(2,6-dioxopiperidin-3-yl)-1,3-dioxo-2,3-dihydro-1H-isoindol-4-yl]oxy}acetamido)ethoxy]ethyl}carbamoyl)pentyl]-3,3-dimethyl-2-[(1E,3E)-5-[(2E)-1,3,3-trimethyl-5-sulfo-2,3-dihydro-1H-indol-2-ylidene]penta-1,3-dien-1-yl]-3H-indol-1-ium-5-sulfonate as a fluorescent probe. Unless otherwise stated, all reagents were purchased from Sigma Aldrich. Enzymatic reactions were conducted in Perkin-Elmer Black 384 well ProxiPlate Plus (catalogue no. 6008269) in 10 μL total volume. Full length wild-type cereblon CRBN (80.0 nM, 10 μL) was incubated in assay buffer containing 20 mM HEPES (pH 8.0), […], 0.5 mM TCEP and 0.05% Tween 20 in the presence or absence of compound (300 nL). Inhibitors were stored as 10 mM DMSO stocks in an inert environment (low humidity, dark, low oxygen, room temperature) using the Storage Pod System. Compounds and DMSO were dispensed using the Echo ESXX (Labcyte Inc. USA) to give concentrations from 300 to 0.937 or 3000 to 9.3 nM in a 12 data point curve. […] FP was measured after a period of 12 hours using a Pherastar plate reader (BMG Labtech, Germany) exciting at 590 nm and measuring the amount of parallel and perpendicular light at 675 nm. […]

Sequence of Protein cereblon (Q96SW2 whole entry): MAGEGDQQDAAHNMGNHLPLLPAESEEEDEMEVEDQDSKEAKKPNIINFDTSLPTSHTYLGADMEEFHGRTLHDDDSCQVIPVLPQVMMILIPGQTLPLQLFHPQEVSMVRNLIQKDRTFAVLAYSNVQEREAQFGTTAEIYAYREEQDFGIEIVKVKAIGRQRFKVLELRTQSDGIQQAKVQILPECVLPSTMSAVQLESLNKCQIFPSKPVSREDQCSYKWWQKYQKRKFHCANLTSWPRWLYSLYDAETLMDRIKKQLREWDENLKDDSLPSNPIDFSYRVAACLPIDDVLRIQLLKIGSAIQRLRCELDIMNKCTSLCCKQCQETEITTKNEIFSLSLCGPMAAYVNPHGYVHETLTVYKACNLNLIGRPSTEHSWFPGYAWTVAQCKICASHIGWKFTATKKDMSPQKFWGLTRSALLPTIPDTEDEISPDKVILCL

Usually IC50 stands for the point on the concentration scale where inhibition reaches its midpoint. High values mean lower potency, low ones higher potency. Molecule `O=C1CCC(N2Cc3ccc(COC(=O)Nc4cc(Cl)cc(OC(F)(F)F)c4)cc3C2=O)C(=O)N1` (stereo unspecified) [US11912682, Compound 11] returned a half-inhibitory concentration (IC50) above 1700 nM.
